Where two headings read alike, the source gives them in different places.
Assays:
human topo IIα = biological target: T1, human topo IIα (Homo sapiens, UniProt P11388); assay: HTS relaxation assay of human topo IIα; assay type: biochemical; details: screening at 7.8, 31.5, 125 and 500 µM
T1 construct: purchased Inspiralis (Norwich, UK)
Method: The 14 selected compounds from the class of substituted 4,5'-bithiazoles were experimentally assayed if they inhibit catalytic activity of human topo IIα using an established high-throughput screening (HTS) relaxation assay for human topo IIα [24].
The HTS assays primarily served to select compounds for further evaluation.
Plate was rehydrated using wash buffer (20 mM Tris-HCl (pH = 7.6), 137 mM NaCl, 0.005 % (w/v) BSA, 0.05 % (v/v) TWEEN-20®) and biotinylated oligonucleotide was immobilized onto the wells. Next, the excess oligonucleotide was washed off with wash buffer. Enzyme assay was carried out in reaction volume of 30 µL using 0.75 µg supercoiled plasmid pNO1 as a substrate and human topo IIα. Enzyme was diluted to the appropriate concentration with dilution buffer comprised of 50 mM Tris-Hcl (pH = 7.5), 100 mM NaCl, 1 mM DTT, 0.5 mM EDTA, 50 % (v/v) glycerol and 50 µg/mL albumin. Tested compounds (0.3 µL) were added as a stock solution in DMSO and final concentration of DMSO was 1 %, respectively. Reactions were incubated at 37 °C for 30 min, and TF buffer (50 mM NaOAc (pH = 5.0), 50 mM NaCl, 50 mM MgCl2) was added to the wells and incubated at room temperature for additional 30 min to allow the triplex biotin-oligonucleotid-plasmid formation. To eliminate the aggregation and non-specific inhibition a surfactant (TWEEN-20®) was added to the reaction mixture. Unbound plasmid was washed off with TF buffer and stained with the DNA-detection Dye in the T10 buffer (10 mM Tris-HCl (pH = 8) and 1 mM EDTA) was added. After mixing, fluorescence was read using Tecan fluorimeter (Excitation: 485 nm and Emission: 535 nm). Screening was performed at the inhibitor concentrations of 7.8, 31.5, 125 and 500 µM. IC50 values were calculated using GraphPad Prism 6.0 software and represent the concentrations of inhibitors where residual activity of the enzyme was 50 % [24].

[1] = solubility in the cell growth media; assay type: physicochemical; details: result in words
MCF-7 cells = assay: MTS cytotoxicity assay, MCF-7; assay type: cell-based, human; details: for effect on the tested cell lines: initial screening, 24 h, 100 µM for compound 6, 200 µM for 8 and 11, result in words; for EC50: Homo sapiens, interval in brackets
From the text: (§1) We determined the cytotoxicity of the tested compounds on human breast cancer MCF-7 and human hepatocellular carcinoma HepG2 cancer cell lines using MTS assay. Both selected human cancer cell lines are representative and well-established systems for cell-based evaluation of potential anticancer compounds. Etoposide was again used as a positive control (PC).
(§2) In the first step we performed the initial screening of compounds 1-14 at one concentration. […] Exponentially growing cells were exposed to all compounds for 24 h and the results are represented in Figure 3A.
(§3) In vitro cytotoxicity of investigated compounds was evaluated in two human cancer cell lines: the […] cell lines. The HepG2 cells (ATCC) were cultivated at 37 °C and 5 % CO2 in MEME medium (M2414, Sigma) supplemented with 10 % FBS, 2 mM L-Glutamine, 1 % NEAA, 2.2 g/L NaHCO3, 1 mM sodium pyruvate and 100 IU/mL penicillin/ streptomycin and MCF-7 (ATCC) were cultivated in Eagle's MEM medium (M5650, Sigma), supplemented with 10 % fetal bovine serum, 2 mM glutamine, and 100 IU/mL penicillin/streptomycin. After the exposure to the tested compounds the viability of HepG2 and MCF-7 cells was determined by MTS tetrazolium reduction assay. The cells were seeded onto 96-well microplates (Nunc, TermoFisher Scientific, Waltham, MA, USA) at densities of 8000 cells per well (HepG2) and 7000 cells per well (MCF-7) in […] growth medium and incubated overnight to attach. The next day, the growth medium was replaced by the fresh complete growth medium containing appropriate concentrations of the compounds. […] Finally, the absorbance was measured at wavelength of 490 nm using a Microplate Reader (Synergy MX, BioTek, Winooski, VT, USA). […] Assay was performed at 5 concentrations of each compound; 2, 25, 50, 100 and 200 µM for compounds 1, 7 and 14 and 1, 12.5, 25, 50, 100 µM for compounds 9 and 10. […] Cell viability was determined by comparing the OD (optical density) of the wells containing the cells treated with investigated compounds with those of solvent control cells and presented as % of cell viability ± SD. Experiments were performed three times independently each time in at least three replicates. EC50 values were calculated by non-linear regression analysis using GraphPad Prism 7.0 Software. Statistical significance between treated groups and the control was determined by One-way analysis of variance and Dunnett's Multiple Comparison Test.

HepG2 cells = assay: MTS cytotoxicity assay, HepG2; assay type: cell-based, human; details: for effect on the tested cell lines: initial screening, 24 h, 100 µM for compound 6, 200 µM for 8 and 11, result in words; for EC50: Homo sapiens, interval in brackets
From the text: as §1, §2, §3

[2] = MCF7, read-out: EC50 [µM] MCF-7 (24h), 24h exposure
[3] = MCF7, 72h exposure, read-out: EC50 [µM] MCF-7 (72h)
[4] = HepG2, read-out: EC50 [µM] HepG2 (24h), 24h exposure
[5] = HepG2, 72h exposure, read-out: EC50 [µM] HepG2 (72h)

T1 sequence (P11388 whole entry): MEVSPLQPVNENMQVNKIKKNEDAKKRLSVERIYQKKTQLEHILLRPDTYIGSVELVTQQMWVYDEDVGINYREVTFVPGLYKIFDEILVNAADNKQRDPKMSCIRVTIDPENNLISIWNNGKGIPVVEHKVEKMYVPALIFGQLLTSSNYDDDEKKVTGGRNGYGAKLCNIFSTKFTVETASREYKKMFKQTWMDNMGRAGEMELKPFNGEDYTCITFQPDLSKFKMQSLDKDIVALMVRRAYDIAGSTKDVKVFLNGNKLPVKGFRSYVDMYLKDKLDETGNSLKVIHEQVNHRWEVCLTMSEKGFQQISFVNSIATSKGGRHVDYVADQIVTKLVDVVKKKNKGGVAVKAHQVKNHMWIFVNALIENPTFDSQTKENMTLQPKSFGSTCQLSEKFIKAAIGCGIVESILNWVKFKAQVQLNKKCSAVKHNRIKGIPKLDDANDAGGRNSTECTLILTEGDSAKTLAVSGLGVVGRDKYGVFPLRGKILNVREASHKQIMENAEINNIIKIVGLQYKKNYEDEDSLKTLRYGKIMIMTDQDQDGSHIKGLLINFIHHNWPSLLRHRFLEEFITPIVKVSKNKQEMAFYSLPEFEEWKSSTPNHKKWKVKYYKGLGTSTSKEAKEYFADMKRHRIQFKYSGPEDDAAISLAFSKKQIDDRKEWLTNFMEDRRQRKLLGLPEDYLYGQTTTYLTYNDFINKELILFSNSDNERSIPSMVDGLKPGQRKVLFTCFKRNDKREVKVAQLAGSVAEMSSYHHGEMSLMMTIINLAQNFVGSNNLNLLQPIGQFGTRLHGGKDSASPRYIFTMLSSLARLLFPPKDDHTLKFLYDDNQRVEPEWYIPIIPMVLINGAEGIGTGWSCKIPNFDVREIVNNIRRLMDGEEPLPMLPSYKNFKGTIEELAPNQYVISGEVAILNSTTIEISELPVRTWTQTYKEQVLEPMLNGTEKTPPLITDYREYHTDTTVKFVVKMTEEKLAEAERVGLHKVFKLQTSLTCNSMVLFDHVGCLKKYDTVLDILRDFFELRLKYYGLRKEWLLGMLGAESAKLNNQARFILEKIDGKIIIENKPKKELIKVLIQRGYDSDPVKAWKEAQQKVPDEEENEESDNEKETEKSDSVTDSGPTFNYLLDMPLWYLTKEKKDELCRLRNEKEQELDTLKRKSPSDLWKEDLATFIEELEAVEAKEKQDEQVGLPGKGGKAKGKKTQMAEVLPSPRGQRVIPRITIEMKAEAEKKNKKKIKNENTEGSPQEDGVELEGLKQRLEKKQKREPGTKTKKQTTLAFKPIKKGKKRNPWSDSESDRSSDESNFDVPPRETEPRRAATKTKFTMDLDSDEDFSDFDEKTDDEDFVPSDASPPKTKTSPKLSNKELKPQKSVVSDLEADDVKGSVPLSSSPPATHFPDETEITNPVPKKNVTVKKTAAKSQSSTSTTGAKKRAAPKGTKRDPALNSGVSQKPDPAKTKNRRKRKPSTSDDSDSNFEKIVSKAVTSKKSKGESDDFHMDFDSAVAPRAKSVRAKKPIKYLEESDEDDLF

Cc1cc(O)ccc1Nc1nc(-c2sc(N)nc2C)cs1 [Compound 2, 4-((2'-amino-4'-methyl-[4,5'-bithiazol]-2-yl)amino)-3-methylphenol] showed an IC50 (human topo IIα) of 35.8 µM.
For CC(=O)c1ccc(Nc2nc(-c3sc(N)nc3C)cs2)cc1 [Compound 3, 1-(4-((2'-amino-4'-methyl-[4,5'-bithiazol]-2-yl)amino)phenyl)ethan-1-one], the IC50 (human topo IIα) was 222 µM and the “solubility in the cell growth media” value [1] was “low solubility”.
Cc1cc(NS(=O)(=O)c2ccc(Nc3nc(-c4sc(N)nc4C)cs3)cc2)no1 [Compound 4, 4-((2'-amino-4'-methyl-[4,5'-bithiazol]-2-yl)amino)-N-(5-methylisoxazol-3-yl)benzenesulfonamide] gave an IC50 (human topo IIα) of 30.1 µM.
Cc1nc(N)sc1-c1csc(Nc2ccc(S(N)(=O)=O)cc2)n1 [Compound 5, 4-((2'-amino-4'-methyl-[4,5'-bithiazol]-2-yl)amino)benzenesulfonamide] showed an IC50 (human topo IIα) of 70.1 µM.
With Cc1nc(N)sc1-c1csc(Nc2ccc(C(=O)O)c(O)c2)n1 [Compound 6, 4-((2'-amino-4'-methyl-[4,5'-bithiazol]-2-yl)amino)-2-hydroxybenzoic acid] the “effect on the tested cell lines” value (MCF-7 cells) was “little or no effect”, the IC50 (human topo IIα) was 37.7 µM and the “effect on the tested cell lines” value (HepG2 cells) was “little or no effect”.
CC(=O)Nc1nc(C)c(-c2csc(Nc3cccc(O)c3)n2)s1 [Compound 7, N-(2-((3-hydroxyphenyl)amino)-4'-methyl-[4,5'-bithiazol]-2'-yl)acetamide] gave an EC50 (MCF-7 cells; [2]) of 12.3 µM, an EC50 (MCF-7 cells; [3]) of 6.6 µM and an IC50 (human topo IIα) of 33.7 µM. It also gave an EC50 (HepG2 cells; [4]) of 45.6 µM and an EC50 (HepG2 cells; [5]) of 32.3 µM.
With CC(=O)Nc1nc(C)c(-c2csc(Nc3ccc(C(=O)O)cc3)n2)s1 [Compound 8, 4-((2'-acetamido-4'-methyl-[4,5'-bithiazol]-2-yl)amino)benzoic acid] the “effect on the tested cell lines” value (MCF-7 cells) was “little or no effect”, the IC50 (human topo IIα) was 120 µM and the “effect on the tested cell lines” value (HepG2 cells) was “little or no effect”.
COc1ccc(Nc2nc(-c3sc(NC(C)=O)nc3C)cs2)cc1 [Compound 10, N-(2-((4-methoxyphenyl)amino)-4'-methyl-[4,5'-bithiazol]-2'-yl)acetamide] gave an EC50 (MCF-7 cells; [2]) of 16.4 µM, an EC50 (MCF-7 cells; [3]) of 4.5 µM and an IC50 (human topo IIα) of 22.7 µM. It also gave an EC50 (HepG2 cells; [4]) of 34.7 µM and an EC50 (HepG2 cells; [5]) of 14.6 µM.
In the case of CC(=O)Nc1nc(C)c(-c2csc(Nc3cccc(C(=O)O)c3)n2)s1 [Compound 11, 3-((2'-acetamido-4'-methyl-[4,5'-bithiazol]-2-yl)amino)benzoic acid], the “effect on the tested cell lines” value (MCF-7 cells) is reported as “little or no effect”, the IC50 (human topo IIα) is reported as 134 µM and the “effect on the tested cell lines” value (HepG2 cells) is reported as “little or no effect”.
Compound CC(=O)Nc1nc(C)c(-c2csc(Nc3ccc(O)cc3)n2)s1 [Compound 12, N-(2-((4-hydroxyphenyl)amino)-4'-methyl-[4,5'-bithiazol]-2'-yl)acetamide] has an IC50 (human topo IIα) of 193 µM.
For CCC(=O)Nc1nc(C)c(-c2csc(Nc3ccc(C(=O)O)cc3)n2)s1 [Compound 13, 4-((4'-methyl-2'-propionamido-[4,5'-bithiazol]-2-yl)amino)benzoic acid], the IC50 (human topo IIα) was 123 µM.
For CC(=O)Nc1nc(C)c(-c2csc(Nc3ccccc3)n2)s1 [Compound 14, N-(4'-methyl-2-(phenylamino)-[4,5'-bithiazol]-2'-yl)acetamide], the EC50 (MCF-7 cells; [2]) was 32.3 µM, the EC50 (MCF-7 cells; [3]) was 7.5 µM and the IC50 (human topo IIα) was 357 µM. It also gave an EC50 (HepG2 cells; [4]) of 47.7 µM and an EC50 (HepG2 cells; [5]) of 28.2 µM.
With Cc1nc(NC(=O)c2ccccc2)sc1-c1csc(Nc2ccc(C(=O)O)cc2)n1 [Compound 15, 4-((2'-benzamido-4'-methyl-[4,5'-bithiazol]-2-yl)amino)benzoic acid] the IC50 (human topo IIα) was 12.6 µM.

Reference: patent publication EP3811940B1, “SUBSTITUTED 4,5'-BITHIAZOLES AS INHIBITORS OF THE HUMAN DNA TOPOISOMERASE II” (Kemijski Institut, priority 2019, dated 2021)
